Measurements taken from paper PMC6440935, “Characterization and phase I study of CLR457, an orally bioavailable pan-class I PI3-kinase inhibitor” (Investigational New Drugs, 2018).
Read-outs that look alike come from different tables or passages of the source.

Source text: The primary objective was to define the maximum tolerated dose (MTD). Secondary objectives included assessments for safety, tolerability, pharmacokinetic (PK) profile, and preliminary antitumor activity.
Patients had histologically documented locally advanced or metastatic solid tumors harboring an activating PIK3CA mutation or amplification, PTEN loss of function, c-MET activation, [16, 17] […] Other key inclusion criteria included age ≥ 18 years, Eastern Cooperative Oncology Group performance status (ECOG-PS) ≤2, adequate organ function, measurable or non-measurable disease as determined by Response Evaluation Criteria in Solid Tumors (RECIST) version 1.1.
The starting dose for CLR457 was 5 mg QD, based on preclinical toxicology studies in accordance with ICH guidelines, and was administered at the same time each day ±2 h in a fasted state. Various doses were planned up to 300 mg QD until MTD determination.
Safety was evaluated by incidence, nature, severity, and relatedness of adverse events (AEs), and graded according to National Cancer Institute - Common Terminology Criteria for Adverse Events (NCI CTCAE) v4.0.3. DLTs were defined as any hematologic or non-hematologic ≥ Grade 3 AE assessed as possibly related to CLR457 that occurred within the first cycle (28 days) of treatment. In addition, uncontrolled (> 14 days) Grade 2 rash or hyperglycemia were also considered DLTs. All AEs regardless of attribution were collected until 30 days following the last administration of treatment or study discontinuation/termination.
Descriptive methods were used to tabulate toxicity and response endpoints in the clinical trial. All patients treated with CLR457 were included for safety. […] Dose escalation was guided by an adaptive Bayesian logistic regression model (BLRM) incorporating the escalation with overdose control (EWOC) principle. […] The study data (including DLTs during cycle 1 and other safety and PK data) were reviewed by the sponsor and trial investigators at each dose level. […] The Full Analysis Set (FAS) included all patients who received at least one dose of CLR457. Safety set included all patients who received at least one dose of CLR457 and had at least one valid post-baseline assessment. The Dose-determining set (DDS) included all patients from the safety set who either met the following minimum exposure criterion and had sufficient safety evaluations, or experienced a DLT during Cycle 1 (the first 28 days of dosing). The Pharmacokinetic analysis set included all patients who had at least one blood sample providing evaluable PK data.

C[C@H]1OC(=O)N(c2cc(-c3cnc(N)nc3C(F)(F)F)nc(N3CCOCC3)n2)[C@H]1CO [CLR457]
DLT hyperglycemia in the first cycle (5 mg, DDS N = 2): 0 n (%) | DLT maculo-papular rash in the first cycle (5 mg, DDS N = 2): 0 n (%) | Total DLTs in the first cycle (5 mg, DDS N = 2): 0 n (%) | Treatment discontinuation, primary reason adverse event (5 mg, FAS N = 2): 0 n (%) | DLT hyperglycemia in the first cycle (10 mg, DDS N = 3): 0 n (%) | DLT maculo-papular rash in the first cycle (10 mg, DDS N = 3): 0 n (%) | Total DLTs in the first cycle (10 mg, DDS N = 3): 0 n (%) | Treatment discontinuation, primary reason adverse event (10 mg, FAS N = 3): 0 n (%) | DLT hyperglycemia in the first cycle (20 mg, DDS N = 4): 0 n (%) | DLT maculo-papular rash in the first cycle (20 mg, DDS N = 4): 0 n (%) | Total DLTs in the first cycle (20 mg, DDS N = 4): 0 n (%) | Treatment discontinuation, primary reason adverse event (20 mg, FAS N = 4): 0 n (%) | DLT maculo-papular rash (40 mg): one | DLT hyperglycemia in the first cycle (40 mg, DDS N = 5): 0 n (%) | DLT maculo-papular rash in the first cycle (40 mg, DDS N = 5): 1 (20.0) n (%) | Total DLTs in the first cycle (40 mg, DDS N = 5): 1 (20.0) n (%) | Treatment discontinuation, primary reason adverse event (40 mg, FAS N = 5): 1 (20.0) n (%) | DLT hyperglycemia in the first cycle (70 mg, DDS N = 6): 0 n (%) | DLT maculo-papular rash in the first cycle (70 mg, DDS N = 6): 0 n (%) | Total DLTs in the first cycle (70 mg, DDS N = 6): 0 n (%) | Treatment discontinuation, primary reason adverse event (70 mg, FAS N = 6): 0 n (%) | DLT Grade 3 hyperglycemia (100 mg): 1 patient | DLT maculo-papular rash (100 mg): two | Patients with ≥ grade 3 toxicity (100 mg cohort (n = 11)): 100% | Rash ≥ grade 3 (100 mg cohort (n = 11)): 45.5% | Patients with a DLT in the 100 mg cohort (100 mg, 3 of 11 patients): 27.3% | Patients with at least one SAE irrespective of treatment (100 mg, 7 of 11 pts): 63.6% | DLT hyperglycemia in the first cycle (100 mg, DDS N = 9): 1 (11.1) n (%) | DLT maculo-papular rash in the first cycle (100 mg, DDS N = 9): 2 (22.2) n (%) | Total DLTs in the first cycle (100 mg, DDS N = 9): 3 (33.3) n (%) | Treatment discontinuation, primary reason adverse event (100 mg, FAS N = 11): 4 (36.4) n (%) | Diarrhea requiring dose interruption or reduction (4 patients): 22% | Maculo-papular rash requiring dose interruption or reduction (8 patients): 44.44% | DLT hyperglycemia in the first cycle (All Patients, DDS N = 29): 1 (3.4) n (%) | DLT maculo-papular rash in the first cycle (All Patients, DDS N = 29): 3 (10.3) n (%) | Total DLTs in the first cycle (All Patients, DDS N = 29): 4 (13.8) n (%) | Treatment discontinuation, primary reason adverse event (All Patients, FAS N = 31): 5 (16.1) n (%) | DLT maculo-papular rash (all doses): 3 patients | On-study deaths attributed to the study drug (all patients): none | Maculo-papular rash, grade 3/4 (all patients N = 31): 25.8% | Patients with Grade 3/4 drug-related AEs (all patients N = 31): 51.6% | On-study deaths (all patients, 5 disease progression, 1 multi-organ failure): Six | AEs requiring dose interruptions or dose reductions (all patients, 18 patients): 58.1% | Asthenia, Grade ≥ 3 (drug-related, 5 mg, N = 2): 0 n (%) | Chills, All Grade (drug-related, 5 mg, N = 2): 0 n (%) | Chills, Grade ≥ 3 (drug-related, 5 mg, N = 2): 0 n (%) | Colitis, All Grade (drug-related, 5 mg, N = 2): 0 n (%) | Colitis, Grade ≥ 3 (drug-related, 5 mg, N = 2): 0 n (%) | Cough, All Grade (drug-related, 5 mg, N = 2): 0 n (%) | Cough, Grade ≥ 3 (drug-related, 5 mg, N = 2): 0 n (%) | Decreased appetite, All Grade (drug-related, 5 mg, N = 2): 0 n (%) | Decreased appetite, Grade ≥ 3 (drug-related, 5 mg, N = 2): 0 n (%) | Decreased neutrophil count, All Grade (drug-related, 5 mg, N = 2): 0 n (%) | Decreased neutrophil count, Grade ≥ 3 (drug-related, 5 mg, N = 2): 0 n (%) | Dehydration, All Grade (drug-related, 5 mg, N = 2): 0 n (%) | Dehydration, Grade ≥ 3 (drug-related, 5 mg, N = 2): 0 n (%) | Diarrhea, All Grade (drug-related, 5 mg, N = 2): 0 n (%) | Diarrhea, Grade ≥ 3 (drug-related, 5 mg, N = 2): 0 n (%) | Dry mouth, All Grade (drug-related, 5 mg, N = 2): 0 n (%) | Dry mouth, Grade ≥ 3 (drug-related, 5 mg, N = 2): 0 n (%) | Dry skin, All Grade (drug-related, 5 mg, N = 2): 0 n (%) | Dry skin, Grade ≥ 3 (drug-related, 5 mg, N = 2): 0 n (%) | Dysgeusia, All Grade (drug-related, 5 mg, N = 2): 0 n (%) | Dysgeusia, Grade ≥ 3 (drug-related, 5 mg, N = 2): 0 n (%) | Fatigue, All Grade (drug-related, 5 mg, N = 2): 1 (50.0) n (%) | Fatigue, Grade ≥ 3 (drug-related, 5 mg, N = 2): 0 n (%) | Headache, All Grade (drug-related, 5 mg, N = 2): 0 n (%) | Headache, Grade ≥ 3 (drug-related, 5 mg, N = 2): 0 n (%) | Hyperglycemia, All Grade (drug-related, 5 mg, N = 2): 0 n (%) | Hyperglycemia, Grade ≥ 3 (drug-related, 5 mg, N = 2): 0 n (%) | Hypomagnesaemia, All Grade (drug-related, 5 mg, N = 2): 0 n (%) | Hypomagnesaemia, Grade ≥ 3 (drug-related, 5 mg, N = 2): 0 n (%) | Maculo-papular rash, All Grade (drug-related, 5 mg, N = 2): 0 n (%) | Maculo-papular rash, Grade ≥ 3 (drug-related, 5 mg, N = 2): 0 n (%) | Nausea, All Grade (drug-related, 5 mg, N = 2): 0 n (%) | Nausea, Grade ≥ 3 (drug-related, 5 mg, N = 2): 0 n (%) | Pneumonitis, All Grade (drug-related, 5 mg, N = 2): 0 n (%) | Pneumonitis, Grade ≥ 3 (drug-related, 5 mg, N = 2): 0 n (%) | Pruritus, All Grade (drug-related, 5 mg, N = 2): 0 n (%) | Pruritus, Grade ≥ 3 (drug-related, 5 mg, N = 2): 0 n (%) | Pyrexia, All Grade (drug-related, 5 mg, N = 2): 0 n (%) | Pyrexia, Grade ≥ 3 (drug-related, 5 mg, N = 2): 0 n (%) | Rash, All Grade (drug-related, 5 mg, N = 2): 0 n (%) | Rash, Grade ≥ 3 (drug-related, 5 mg, N = 2): 0 n (%) | Stomatitis, All Grade (drug-related, 5 mg, N = 2): 0 n (%) | Stomatitis, Grade ≥ 3 (drug-related, 5 mg, N = 2): 0 n (%) | Vomiting, All Grade (drug-related, 5 mg, N = 2): 0 n (%) | Vomiting, Grade ≥ 3 (drug-related, 5 mg, N = 2): 0 n (%) | Weight decreased, All Grade (drug-related, 5 mg, N = 2): 0 n (%) | Weight decreased, Grade ≥ 3 (drug-related, 5 mg, N = 2): 0 n (%) | Asthenia, Grade ≥ 3 (drug-related, 10 mg, N = 3): 0 n (%) | Chills, All Grade (drug-related, 10 mg, N = 3): 0 n (%) | Chills, Grade ≥ 3 (drug-related, 10 mg, N = 3): 0 n (%) | Colitis, All Grade (drug-related, 10 mg, N = 3): 0 n (%) | Colitis, Grade ≥ 3 (drug-related, 10 mg, N = 3): 0 n (%) | Cough, All Grade (drug-related, 10 mg, N = 3): 0 n (%)
